This assay has as its target HLA B*0801 (Homo sapiens, UniProt P01889, A93T/A95T/D138N/E176V/E187T/K202T/Q94N/R180D/S35A/V36M/Y33D/Y91F). Briefly: biochemical. Type of assay: binding.

Where a SMILES comes first, the peptide text is derived from it.

`CC(C)C[C@H](NC(=O)[C@@H](NC(=O)[C@H](CC(C)C)NC(=O)[C@H](CCCCN)NC(=O)[C@H](CCCNC(=N)N)NC(=O)[C@H](Cc1ccccc1)NC(=O)[C@H](Cc1ccccc1)NC(=O)[C@@H]1CCCN1C(=O)[C@@H](N)Cc1ccc(O)cc1)C(C)C)C(=O)O` [3102.0643] (H-YPFFRKLVL-OH): it took 5.9 nM to reach half-maximal inhibition (IC50).
As for `CSCC[C@H](NC(=O)[C@H](CCC(N)=O)NC(=O)[C@@H](N)CO)C(=O)N[C@@H](CCC(=O)O)C(=O)N[C@@H](CCCNC(=N)N)C(=O)N[C@@H](Cc1ccccc1)C(=O)N[C@@H](CC(N)=O)C(=O)N[C@@H](CS)C(=O)N[C@@H](CO)C(=O)O` [3102.0586] (H-SQMERFNCS-OH), the figure is 39 nM; as for `CC[C@H](C)[C@H](NC(=O)[C@H](CO)NC(=O)[C@H](CC(C)C)NC(=O)[C@H](CC(C)C)NC(=O)[C@H](CCCNC(=N)N)NC(=O)[C@H](CCSC)NC(=O)[C@H](CCC(=O)O)NC(=O)[C@H](C)NC(=O)[C@@H](N)CO)C(=O)O` [3102.0547] (H-SAEMRLLSI-OH), 21 nM; as for `CC[C@H](C)[C@H](NC(=O)[C@H](CCSC)NC(=O)[C@H](CC(C)C)NC(=O)[C@@H]1CCCN1C(=O)[C@@H](N)CCCNC(=N)N)C(=O)N[C@@H](Cc1ccccc1)C(=O)N[C@@H](CCSC)C(=O)N[C@@H](CO)C(=O)NCC(=O)O` [3102.0609] (H-RPLMIFMSG-OH), 12 nM.
`CC(C)C[C@H](NC(=O)[C@@H]1CCCN1C(=O)[C@H](CCCNC(=N)N)NC(=O)[C@H](Cc1ccccc1)NC(=O)[C@H](CCCCN)NC(=O)[C@H](CCCCN)NC(=O)[C@H](CCCNC(=N)N)NC(=O)[C@H](Cc1ccc(O)cc1)NC(=O)[C@@H](N)Cc1ccccc1)C(=O)O` [3102.0608] (H-FYRKKFRPL-OH) had an IC50 of 0.088 nM.
As for `CC(C)C[C@H](NC(=O)[C@H](CCCNC(=N)N)NC(=O)[C@H](C)NC(=O)[C@H](CC(N)=O)NC(=O)[C@H](CCCNC(=N)N)NC(=O)[C@H](C)NC(=O)CNC(=O)[C@@H]1CCCN1C(=O)[C@@H](N)CC(N)=O)C(=O)O` [3102.0722] (H-NPGARNARL-OH), the figure is 6.2 nM.
`CC[C@H](C)[C@H](NC(=O)[C@H](Cc1ccc(O)cc1)NC(=O)[C@H](C)NC(=O)[C@@H]1CCCN1C(=O)[C@@H](N)CCSC)C(=O)N[C@@H](CCCNC(=N)N)C(=O)N[C@@H](CC(N)=O)C(=O)N[C@H](C(=O)N[C@@H](CC(C)C)C(=O)O)[C@@H](C)O` [3102.0553] came in with an IC50 of 1.4 nM.
`CSCC[C@H](N)C(=O)N[C@@H](CC(C)C)C(=O)N[C@@H](CC(C)C)C(=O)N[C@@H](CS)C(=O)N[C@@H](Cc1c[nH]cn1)C(=O)N[C@@H](CCCCN)C(=O)N1CCC[C@H]1C(=O)N[C@H](C(=O)N[C@@H](CC(C)C)C(=O)O)[C@@H](C)O` [3102.0644] (H-MLLCHKPTL-OH) displayed an IC50 of 19 nM.
Regarding `CC(C)C[C@H](NC(=O)[C@@H](N)CC(N)=O)C(=O)N[C@@H](CCCNC(=N)N)C(=O)N[C@@H](CS)C(=O)N[C@@H](Cc1c[nH]cn1)C(=O)N[C@@H](CO)C(=O)N[C@@H](C)C(=O)N[C@@H](Cc1c[nH]cn1)C(=O)N[C@H](C(=O)O)C(C)C` [3102.0700] (H-NLRCHSAHV-OH), inhibition was half-maximal at 1.2 nM (IC50).
In turn, `CC(C)C[C@H](NC(=O)[C@H](Cc1ccccc1)NC(=O)[C@H](Cc1ccc(O)cc1)NC(=O)[C@H](CC(C)C)NC(=O)[C@H](CCCNC(=N)N)NC(=O)[C@H](CCC(N)=O)NC(=O)[C@H](CC(C)C)NC(=O)[C@H](Cc1ccccc1)NC(=O)[C@@H](N)Cc1ccccc1)C(=O)O` [3102.0589] (H-FFLQRLYFL-OH) returned an IC50 of 6.8 nM.
As for `N=C(N)NCCC[C@H](NC(=O)[C@H](Cc1ccc(O)cc1)NC(=O)[C@H](CCCNC(=N)N)NC(=O)[C@H](CCCNC(=N)N)NC(=O)[C@H](CO)NC(=O)[C@@H](N)CO)C(=O)N[C@@H](CS)C(=O)N[C@@H](CO)C(=O)N[C@@H](Cc1ccccc1)C(=O)O` [3102.1158] (H-SSRRYRCSF-OH), the figure is 12 nM; as for `CC(C)C[C@H](NC(=O)[C@@H](N)CC(=O)O)C(=O)N[C@@H](CCCNC(=N)N)C(=O)N[C@@H](CCCNC(=N)N)C(=O)N[C@@H](CCCNC(=N)N)C(=O)N[C@@H](Cc1ccccc1)C(=O)N[C@@H](CC(=O)O)C(=O)N[C@H](C(=O)N[C@@H](Cc1ccccc1)C(=O)O)[C@@H](C)O` [3102.0667] (H-DLRRRFDTF-OH), 1.6 nM; as for `CC(C)C[C@H](NC(=O)[C@H](C)NC(=O)[C@H](CO)NC(=O)[C@H](Cc1ccccc1)NC(=O)[C@H](CCCCN)NC(=O)[C@H](CCCNC(=N)N)NC(=O)[C@H](CC(C)C)NC(=O)[C@H](Cc1ccc(O)cc1)NC(=O)[C@@H](N)CO)C(=O)O` [3102.0770] (H-SYLRKFSAL-OH), 6 nM.
In turn, `CC(C)C[C@H](NC(=O)[C@H](CCCNC(=N)N)NC(=O)[C@@H](NC(=O)[C@H](Cc1ccccc1)NC(=O)[C@H](Cc1c[nH]cn1)NC(=O)CNC(=O)[C@H](CCCCN)NC(=O)[C@H](CC(N)=O)NC(=O)[C@@H](N)Cc1ccccc1)[C@@H](C)O)C(=O)O` [3102.0610] (H-FNKGHFTRL-OH) gave a half-maximal inhibitory concentration (IC50) of 16 nM.
As for `CC[C@H](C)[C@H](NC(=O)[C@@H](N)Cc1ccccc1)C(=O)N[C@@H](CCCCN)C(=O)N[C@@H](CCC(N)=O)C(=O)NCC(=O)N[C@@H](Cc1ccccc1)C(=O)N[C@@H](CC(N)=O)C(=O)N[C@@H](CC(N)=O)C(=O)N[C@@H](CC(C)C)C(=O)O` [3102.0781] (H-FIKQGFNNL-OH), the half-maximal inhibitory concentration (IC50) came out at 0.91 nM.
As to `CC[C@H](C)[C@H](NC(=O)[C@H](CC(=O)O)NC(=O)[C@H](CC(N)=O)NC(=O)[C@@H](NC(=O)[C@H](CCCCN)NC(=O)[C@@H](NC(=O)[C@H](CCCCN)NC(=O)[C@@H]1CCCN1C(=O)[C@@H](N)CCCNC(=N)N)[C@@H](C)CC)[C@@H](C)O)C(=O)O` [3102.0737] (H-RPKIKTNDI-OH), the IC50 came out at 2.1 nM.
`CC[C@H](C)[C@H](NC(=O)[C@H](CC(C)C)NC(=O)[C@@H](N)CO)C(=O)N1CCC[C@H]1C(=O)N[C@@H](CCCNC(=N)N)C(=O)N[C@@H](CC(C)C)C(=O)N[C@H](C(=O)N[C@@H](CC(=O)O)C(=O)N[C@@H](Cc1ccccc1)C(=O)O)C(C)C` [3102.0730] (H-SLIPRLVDF-OH) registered an IC50 of 13 nM.
`CC[C@H](C)[C@H](NC(=O)[C@@H]1CCCN1C(=O)[C@H](CCCCN)NC(=O)[C@@H](NC(=O)[C@H](CCCNC(=N)N)NC(=O)[C@H](CC(N)=O)NC(=O)[C@H](CCCNC(=N)N)NC(=O)[C@H](CCSC)NC(=O)[C@@H](N)CCSC)[C@@H](C)O)C(=O)O` [3102.0668] (H-MMRNRTKPI-OH) returned an IC50 of 1.5 nM.
As to `CC(C)C[C@H](NC(=O)[C@H](Cc1ccccc1)NC(=O)[C@H](C)NC(=O)[C@H](Cc1ccccc1)NC(=O)[C@H](CCCNC(=N)N)NC(=O)[C@H](Cc1ccc(O)cc1)NC(=O)[C@H](CCCNC(=N)N)NC(=O)[C@H](CC(N)=O)NC(=O)[C@@H](N)CC(N)=O)C(=O)O` [3102.0568] (H-NNRYRFAFL-OH), inhibition was half-maximal at 31 nM (IC50).
As for `CC[C@H](C)[C@H](NC(=O)[C@H](CO)NC(=O)[C@H](CCSC)NC(=O)[C@H](CC(C)C)NC(=O)[C@H](CCCNC(=N)N)NC(=O)[C@H](CC(N)=O)NC(=O)[C@H](CO)NC(=O)[C@H](CC(N)=O)NC(=O)[C@@H](N)CO)C(=O)O` [3102.0713] (H-SNSNRLMSI-OH), the figure is 10 nM.
As for `CC(C)C[C@H](NC(=O)[C@H](CCC(=O)O)NC(=O)[C@@H](NC(=O)[C@H](CC(C)C)NC(=O)[C@H](CCCCN)NC(=O)[C@H](CCCNC(=N)N)NC(=O)[C@H](CCCCN)NC(=O)[C@H](C)NC(=O)[C@@H](N)CCC(=O)O)[C@@H](C)O)C(=O)O` [3102.0742] (H-EAKRKLTEL-OH), the figure is 2.5 nM.

Source of the values: article PMC2248166, “Quantitative peptide binding motifs for 19 human and mouse MHC class I molecules derived using positional scanning combinatorial peptide libraries” (Immunome Research, 2008).
